Experimental data published in US12139478B2, “Compounds, compositions and methods” (Denali Therapeutics Inc., priority 2017, dated 2024).
Where two headings read alike, the source gives them in different places.

Test system: ATF4 translation
Assay: ATF4 Nano Luciferase reporter integrated stress response (ISR) assay in H4 ATF4-NLuc cells
Type: cell-based, human
Conditions: H4 ATF4-NLuc (clone 17) cells, compound 30 minutes, then sodium arsenite for 6 additional hours, luminescence readout
From the text: Cellular stress leads to activation of the integrated stress response pathway through one of four eukaryotic initiation factor 2a kinases and halts global translation, while allowing for the translation of select transcripts like ATF4 (activating transcription factor 4) that are important for the response to cellular stress. During normal conditions, small open reading frames (ORFs) in the 5′ UTR of ATF4 occupy the ribosome and prevent translation of the coding sequence of ATF4. During stress conditions however, the ribosome scans past these upstream ORFs and preferentially begins translation at the coding sequence of ATF4. In this way, the translation, and thus protein level of ATF4 is a readout of ISR pathway activation. Thus, a fusion of the uORFs and the beginning of the coding sequence of ATF to a common cellular reporter like nano-luciferase allows for a sensitive and high-throughput readout of ISR pathway activity.
Compounds as provided herein were tested in the following assay. The ATF4 Nano Luciferase reporter was constructed by fusing the human full length 5′ untranslated region (5′-UTR) and a small portion of the coding sequence of the ATF4 gene upstream of the Nano Luciferase (NLuc) coding sequence lacking it's start codon. Specifically, nucleotides +1 through +364 (relative to the transcriptional start site) of ATF4 transcript variant 2 (NCBI NM_182810.2) flanked 5′ by EcoRI and 3′ by BamHI restriction enzyme sites were synthesized and cloned into the EcoRI/BamHI cloning sites of pLVX-EF1a-IRES-Puro lentivirus vector (Clontech). Lentiviral particles were produced with Lenti-X single shots (VSV-G, Clontech) according to the manufacturer's instructions and used to transduce a human H4 neuroglioma cell line (ATCC HTB-148). H4 cells were selected with 1.25 μg/mL Puromycin, and clonal cell lines generated by limiting dilution. We utilized this cell line to generate an integrated stress response (ISR) assay to evaluate the activity of ISR pathway inhibitors via luminescence readout. The H4 ATF4-NLuc (clone 17) cell line is plated at a density of […] in 96-well or 384-well respectively in DMEM+[…]. 24-hours later test compounds diluted in dimethyl sulfoxide (DMSO) are added for 30 minutes at 37° C., followed by ISR pathway activation with […] sodium arsenite aqueous solution for 6 additional hours. Nano Glo luciferase reagent (N1150, Promega) is added according to manufacturer instructions and the luminescence signal (corresponding to the level of ATF4 translation and thus ISR pathway activation) is read with a standard plate reader with luminescence detection capabilities. […] In the tables below, activity of the tested compounds is provided, and in Table 3 as follows: […]; ++=IC50 1-10 μM; +=IC50>10 μM.

[1] = Homo sapiens, 0.5 h, read-out: Activity
[2] = Homo sapiens, 0.5 h, read-out: Biological Example 1 (ATF4 translation, IC50 nM)

For `O=C(N[C@@H]1CC[C@@H](c2nnc(C3CC(OC(F)(F)F)C3)o2)OC1)c1cn2ccc(Br)cc2n1` (stereo partly drawn) [Example 42, 7-bromo-N-((3R,6S)-6-(5-(3-cis-(trifluoromethoxy)cyclobutyl)-1,3,4-oxadiazol-2-yl)tetrahydro-2H-pyran-3-yl)imidazo[1,2-a]pyridine-2-carboxamide], the IC50 [1] was < 1000 nM.
`O=C(COc1ccc(F)cc1)N[C@@H]1CC[C@@H](c2nnc(C3CC(OC(F)(F)F)C3)o2)OC1` (stereo partly drawn) [Example 20, 2-(4-fluorophenoxy)-N-[(3R,6S)-6-[5-[3-cis-(trifluoromethoxy)cyclobutyl]-1,3,4-oxadiazol-2-yl]tetrahydropyran-3-yl]acetamide] was tested, and the IC50 [1] was < 1000 nM.
For `COC(=O)[C@@H]1CC[C@@H](NC(=O)COc2ccc(Cl)cc2)CO1` [Example 23, Methyl (2S,5R)-5-[[2-(4-chlorophenoxy)acetyl]amino]tetrahydropyran-2-carboxylate], the IC50 [1] was 1000 to 10000 nM.
For `O=C(COc1ccc(F)cc1)NC12CCC(c3nnc([C@H]4C[C@@H](OC(F)(F)F)C4)o3)(CC1)OC2` [Example 22, 2-(4-fluorophenoxy)-N-[1-[5-[3-cis-(trifluoromethoxy)cyclobutyl]-1,3,4-oxadiazol-2-yl]-2-oxabicyclo[2.2.2]octan-4-yl]acetamide], the IC50 [1] was < 1000 nM.
`O=C(COC1CC(OC(F)(F)F)C1)NC12CCC(c3cc(-c4ccc(Cl)c(F)c4)no3)(CC1)OC2` (stereo not shown) [Example 47] was tested, and the IC50 [1] was < 1000 nM.
`COC1C[C@@H](c2nnc([C@H]3C[C@@H](OC(F)(F)F)C3)o2)OC[C@@H]1NC(=O)COc1ccc(F)cc1` (stereo partly drawn) [Example 33, 2-(4-fluorophenoxy)-N-((3S,6S)-4-methoxy-6-(5-(3-cis-(trifluoromethoxy)cyclobutyl)-1,3,4-oxadiazol-2-yl)tetrahydro-2H-pyran-3-yl)acetamide] was tested, and the IC50 [1] was < 1000 nM and the IC50 [2] was 421 nM.
`O=C(COC1CC(OC(F)(F)F)C1)N[C@@H]1CC[C@@H](c2cc(-c3ccc(Cl)c(F)c3)no2)OC1` (stereo partly shown) [Example 50] was tested, and the IC50 [1] was < 1000 nM and the IC50 [2] was 38 nM.
For `O=C(COc1ccc(Cl)c(F)c1)N[C@@H]1CC[C@@H](c2nnc(C3C[C@H]3COC(F)(F)F)o2)OC1` (single isomer, unassigned) [Example 70], the IC50 (read-out: Activity) was < 1000 nM and the IC50 [2] was 8 nM.
In the case of `O=C(N[C@@H]1CC[C@@H](c2nnc(C3CC(OC(F)(F)F)C3)o2)OC1)c1ccc2cc(C(F)(F)F)ccc2n1` (stereo partly drawn) [Example 60, N-((3R,6S)-6-(5-(3-cis-(trifluoromethoxy)cyclobutyl)-1,3,4-oxadiazol-2-yl)tetrahydro-2H-pyran-3-yl)-6-(trifluoromethyl)quinoline-2-carboxamide], the IC50 [1] is reported as < 1000 nM and the IC50 [2] is reported as 3.5 nM.
In the case of `O=C(N[C@@H]1CC[C@@H](c2nnc(C3CC(OC(F)(F)F)C3)o2)OC1)[C@@H]1CCc2cc(F)ccc2O1` (stereo partly drawn) [Example 66, 6-fluoro-N-((3R,6S)-6-(5-(3-cis-(trifluoromethoxy)cyclobutyl)-1,3,4-oxadiazol-2-yl)tetrahydro-2H-pyran-3-yl)chroman-2-carboxamide], the IC50 [1] is reported as < 1000 nM.
`O=C(N[C@@H]1CC[C@@H](c2nnc(C3CC(OC(F)(F)F)C3)o2)OC1)c1ccc2c(F)c(F)ccc2n1` (stereo partly shown) [Example 76] was tested, and the IC50 [1] was < 1000 nM.
`O=C(COc1ccc(C(F)(F)F)cc1)N[C@@H]1CC[C@@H](c2nnc([C@H]3C[C@@H](OC(F)(F)F)C3)o2)OC1` [Example 40, N-[(3R,6S)-6-[5-[3-cis-(trifluoromethoxy)cyclobutyl]-1,3,4-oxadiazol-2-yl]tetrahydropyran-3-yl]-2-[4-(trifluoromethyl)phenoxy]acetamide] was tested, and the IC50 [1] was < 1000 nM and the IC50 [2] was 2.4 nM.
`O=C(N[C@@H]1CC[C@@H](c2nnc(C3CC(OC(F)(F)F)C3)o2)OC1)c1ccc2cc(F)ccc2n1` (stereo partly drawn) [Example 57, 6-fluoro-N-((3R,6S)-6-(5-(3-cis-(trifluoromethoxy)cyclobutyl)-1,3,4-oxadiazol-2-yl)tetrahydro-2H-pyran-3-yl)quinoline-2-carboxamide] was tested, and the IC50 [1] was < 1000 nM.
With `O=C(COc1ccc(Cl)cc1)N[C@@H]1CC[C@@H](C(O)COC2CC(OC(F)(F)F)C2)OC1` (stereo partly shown) [Example 46] the IC50 [1] was < 1000 nM.
